# B1: 484-604: dominant-negative myc-tagged fragment of COX2, amino acids 484-604, which binds iNOS (protein)
# chain: IDAVELYPALLVEKPRPDAIFGETMVEVGAPFSLKGLMGNVICSPAYWKPSTFGGEVGFQIINTASIQSLICNNVKGCPFTSFSVPDPELIKTVTINASSSRSGLDDINPTVLLKERSTEL
# B2: 1-483: myc-tagged fragment of COX2 comprising amino acids 1-483, which does not bind iNOS (protein)
# chain: ANPCCSHPCQNRGVCMSVGFDQYKCDCTRTGFYGENCSTPEFLTRIKLFLKPTPNTVHYILTHFKGFWNVVNNIPFLRNAIMSYVLTSRSHLIDSPPTYNADYGYKSWEAFSNLSYYTRALPPVPDDCPTPLGVKGKKQLPDSNEIVEKLLLRRKFIPDPQGSNMMFAFFAQHFTHQFFKTDHKRGPAFTNGLGHGVDLNHIYGETLARQRKLRLFKDGKMKYQIIDGEMYPPTVKDTQAEMIYPPQVPEHLRFAVGQEVFGLVPGLMMYATIWLREHNRVCDVLKQEHPEWGDEQLFQTSRLILIGETIKIVIEDYVQHLSGYHFKLKFDPELLFNKQFQYQNRIAAEFNTLYHWHPLLPDTFQIHDQKYNYQQFIYNNSILLEHGITQFVESFTRQIAGRVAGGRNVPPAVQKVSQASIDQSRQMKYQSFNEYRKRFMLKPYESFEELTGEKEMSAELEALYGD
# Assays:
# [1] = tested on: COX2; experiment: S-nitrosylation of COX2 in RAW264.7 cells treated with LPS/IFNγ (biotin switch and fluorometric detection); type: cell-based, murine; settings: 1400W 100 μM, fragment transfected
# Method: (§1) S-nitrosylation assay. Cells were homogenized by 26G needle in HEN ([…] Hepes-NaOH pH 7.7, 1 mM EDTA, 0.1 mM Neocuproine) buffer and then centrifuged at 1000 g for 10 min at 4° C. Cells lysates (240 μg) was added 4 vol of blocking buffer (9 vol of HEN buffer plus 1 vol 25% SDS, adjusted to 20 mM MMTS with a 2 M stock prepared in dimethylformamide (DMF)) at 50° C. for 20 min with frequent vortexing. The MMTS was then removed by desalting three times with the MicroBioSpin6 column (Bio-Rad, Hercules, Calif.) pre-equilibrated in HEN buffer. To the eluate was added biotin-HPDP prepared fresh as a 4 mM stock in DMSO from a 50 mM stock suspension in DMF. Sodium ascorbate was added to a final concentration of 1 mM. After incubation for 1 h at 25° C., biotinylated proteins were precipitated by streptavidin-agarose beads. The streptavidin-agarose was then pelleted and washed 5 times using HENS buffer. The biotinylated proteins were eluted by SDS-PAGE sample buffer and subjected to Western-blot analysis.
# Fluorometric detection of S-nitrosothiols. The methods were modified according to Cook et al.(2) RAW264.7 cells were treated with LPS/IFNγ for overnight and COX2 was immunoprecipitated by donkey anti-rat COX2 antibodies. After that the samples were reacted with 100 μM 2,3-diaminonaphthalene (DAN) in the presence of 100 μM of HgCl2 and incubated in darkness for 30 min at room temperature. The generated fluorescent compound 2,3-napththyltrazole (NAT) was then measured at an excitation wavelength of 375 nm and an emission wavelength of 450 nm.
# [2] = tested on: RAW264.7 cells; experiment: PGE2 formation in RAW264.7 cells in response to LPS/IFNγ (PGE2 ELISA); type: cell-based, murine; settings: for PGE2 formation in response to LPS/IFNγ: 1400W various concentrations overnight, L-NAME 500 μM, D-NAME 500 μM
# Method: Measurement of PGE2. Cells were washed with worm PBS (×2) and incubated in the phenol free Dulbecco's modified Eagle's medium supplemented with 20 μM arachidonic acid and 3% albumin for 20 min. Media was collected and PGE2 production was measured with a PGE2 ELISA kit from Assay Design (Ann Arbor, Mich.) according to the manufacturer's instructions.
# [3] = molecular target: T1, iNOS and COX2 binding (Mus musculus, UniProt P29477+Q05769); experiment: Co-immunoprecipitation of iNOS and COX2 in LPS/IFNγ-induced RAW264.7 cells; type: cell-based, murine
# T1 construct: endogenous in cells; host or cells: RAW264.7 murine macrophages induced with LPS/IFNγ
# [4] = molecular target: T2, COX2 (Homo sapiens, UniProt P35354); experiment: S-nitrosylation of COX2 (biotin switch assay) in HEK293T cells transfected with COX2-myc; type: cell-based; settings: for S-nitrosylation of COX2 by NO donors and H2O2: HEK293T cells transfected with COX2-myc, biotin switch, GSNO 100 μM, SNP 100 μM, Spermine-NO 100 μM, DETA-NO 500 μM
# T2 construct: myc; expressed in transfected cells; host or cells: HEK293T
# T2 sequence (P35354 18-604): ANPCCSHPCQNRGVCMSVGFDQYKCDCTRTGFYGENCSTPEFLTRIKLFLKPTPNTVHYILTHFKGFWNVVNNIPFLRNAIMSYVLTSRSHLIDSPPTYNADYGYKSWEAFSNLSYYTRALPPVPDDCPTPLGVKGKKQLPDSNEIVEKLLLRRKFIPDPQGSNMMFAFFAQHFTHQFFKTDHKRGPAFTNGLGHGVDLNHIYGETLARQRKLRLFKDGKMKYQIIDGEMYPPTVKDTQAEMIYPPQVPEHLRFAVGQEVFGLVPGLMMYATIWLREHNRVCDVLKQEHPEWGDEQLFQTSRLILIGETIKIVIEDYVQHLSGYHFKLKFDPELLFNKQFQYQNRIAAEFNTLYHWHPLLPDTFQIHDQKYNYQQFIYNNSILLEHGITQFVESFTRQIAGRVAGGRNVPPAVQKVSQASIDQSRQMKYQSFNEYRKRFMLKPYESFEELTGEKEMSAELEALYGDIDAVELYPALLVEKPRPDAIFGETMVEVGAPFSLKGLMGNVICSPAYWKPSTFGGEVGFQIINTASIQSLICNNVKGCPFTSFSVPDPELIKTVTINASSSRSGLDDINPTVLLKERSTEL
# Excerpt: Plasmid Constructions. Full length human cyclooxygenase2-encoding gene (gene bank sequence NM_000963) was purchased from ATCC in pCMV•SPORT6 vector. The sequence was amplified by PCR using primers harboring Sal1/Not1 restriction sites and cloned into the pCMV-Myc vector (Clontech, Palo Alto, Calif.). The murine inducible nitric oxide synthase (accession number NM_010927) cloned into the pcDNA3.1+vector (Invitrogen, Carlsbad, Calif.).
# as §1
# [5] = molecular target: T2, COX2; experiment: COX2 enzyme activity in cell lysate of COX2-myc transfected HEK293T cells; type: biochemical
# Method: COX2 enzymatic assay. […] COX2 enzymatic activity was measured with a COX assay kit (Cayman Biochemical Inc, Ann Arbor, Mich.) according to the manufacturer's instructions.
# To determine whether S-nitrosylation of COX2 alters enzyme activity, we examined COX2 enzyme activity in HEK293T cells transfected with COX2-myc.
# [6] = tested on: RAW264.7 cells; experiment: Confocal immunofluorescence of endogenous PGE2 in RAW264.7 cells transfected with COX2-myc fragments; type: cell-based, murine; settings: RAW264.7 cells activated by LPS/IFNγ
# Method: Immunohistochemistry. RAW264.7 cells were transfected with deletion constructs of COX2. Cells were fixed in 4% paraformaldehyde in PBS for 5 min, permeablized in 0.1% Triton X-100 for 10 s, and then rinsed twice in PBS. Coverslips were then blocked in 10% goat serum at room temperature for 1 h and incubated with PGE2 (Cayman Biochemical Inc, Ann Arbor, Mich.) and myc antibodies for 24 hr at 4° C. Rhodamine or fluorescein-conjugated secondary antibodies (Jackson Immunochemicals, West Grove, Pa.) were then added at 10 μg/ml for 1 hr at room temperature as indicated. Coverslips were mounted in ProLong (Molecular Probes, Eugene, Oreg.). Confocal microscopy, in which the immunofluorescent staining is superimposed on phase contrast images, employed a Noran OZ (Noran Instruments, Middleton, Wis.) confocal laser-scanning system, fitted to an Olympus IX-50 fluorescence microscope.
molecule,measurement,setting,value
CC(=N)NCc1cccc(CN)c1 [1400W],S-nitrosylation of COX2,[1],prevented
same,PGE2 formation in response to LPS/IFNγ,[2]; RAW264.7 cells,inhibited
same,Co-precipitation of iNOS and COX2,"[3]; RAW264.7 cells induced by LPS/IFNγ, inhibitor 100 μM, immunoprecipitation with anti-iNOS or anti-COX2 antibodies",unaffected
COC(=O)[C@H](N)CCCN=C(N)N[N+](=O)[O-] [D-NAME],PGE2 formation in response to LPS/IFNγ,[2]; RAW264.7 cells,not
NCCN(CCN)/[N+]([O-])=N/O [DETA-NONOate],S-nitrosylation of COX2 by NO donors and H2O2,[4],elicit S-nitrosylation
"N[C@@H](CCC(=O)N[C@@H](CSN=O)C(=O)NCC(=O)O)C(=O)O [GSNO, nitrosoglutathione]",S-nitrosylation of COX2 by NO donors and H2O2,[4],elicit S-nitrosylation
OO [H2O2],S-nitrosylation of COX2 by NO donors and H2O2,[4],does not elicit S-nitrosylation
"COC(=O)[C@@H](N)CCCNC(=N)N[N+](=O)[O-] [L-NAME, nitro-argininemethylester]",PGE2 formation in response to LPS/IFNγ,[2]; RAW264.7 cells,inhibition of PGE2 formation
N=C(N)NCCC[C@H](N)C(=O)O [L-arginine],Effects of L-NAME on PGE2 formation,"[2]; RAW264.7 cells, LPS/IFNγ, L-NAME 500 μM + L-Arg 1 mM",reversed
O=C1O[C@H]([C@@H](O)CO)C(O)=C1O [ascorbic acid],S-nitrosylation of COX2-myc in the presence of SNP,"[4]; SNP 200 μM, ASC 500 μM",reversed
same,Increase of COX2 activity by SNP,[5]; SNP 200 μM plus ascorbate 500 μM,prevents the increase
same,COX2 activity in preparations not treated by SNP,"[5]; ascorbate 500 μM, no SNP",fails to affect
NCCCNCCCCN(CCCN)/[N+]([O-])=N/O [spermine-NO],S-nitrosylation of COX2 by NO donors and H2O2,[4],elicit S-nitrosylation
hemoglobin: sequesters freely diffusible NO,S-nitrosylation of COX2,[1],fails to alter
B1,S-nitrosylation of COX2,[1],decreases
same,PGE2 expression level in transfected cell compared to non-transfected cell (immunofluorescent staining),[6],reduction
same,Reduction of PGE2 formation,"[2]; dominant-negative fragment transfected into RAW264.7 cells, LPS/IFNγ",more than 50%
same,Co-precipitation of iNOS and COX2,"[3]; fragment transfected into RAW264.7 cells, LPS/IFNγ, immunoprecipitation with anti-iNOS",abolishes
B2,PGE2 expression level in transfected cell compared to non-transfected cell (immunofluorescent staining),[6],does not show a reduction
same,Influence on PGE2 formation,"[2]; fragment transfected into RAW264.7 cells, LPS/IFNγ",fails to influence
